In patent US12679846B2, “Xanthone compound having excellent anticancer effect” (KOREA INSTITUTE OF OCEAN SCIENCE & TECHNOLOGY, priority 2021, dated 2026):

Assays:
NUGC-3 (stomach cancer) = test: Cytotoxicity test against cancer cell lines (SRB assay), NUGC-3; assay type: cell-based; conditions: Homo sapiens, NUGC-3, 48 hours
Description: (§1) Human cancer cell lines HCT-15 (colon cancer), NUGC-3 (stomach cancer), NCI-H23 ([…]), ACHN (kidney cancer), PC-3 (prostate cancer), and MDA-MB-231 (breast cancer) were purchased and used from American Type Culture Collection (Manassas, VA).
(§2) Each of the cancer cell lines was cultured in RPMI 1640 supplemented with 10% fetal bovine serum (FBS) at 37° C. in a humidified atmosphere of 5% CO2. Growth inhibition was evaluated for human cancer cell lines using a sulforhodamine B (SRB) assay. The cells were dispensed in a 96-well plate at a density of 8000 cells/well, and the next day, the cells were treated with each of Examples 1 and 2 (0.1% DMSO as vehicle control), and a positive control group was treated with Adriamycin. The cells were cultured for 48 hours, and then each culture medium was fixed with 50% trichloroacetic acid ([…]) and stained using 0.4% sulforhodamine B in 1% acetic acid. An unbound dye was washed with 1% acetic acid, and the dye bound to a protein was extracted with 10 mM Tris base (pH 10.5) to determine the optical density. Absorbance at 540 nm was determined using a VersaMax microplate reader (Molecular Devices, LLC, Sunnyvale, CA, USA). GI50 values were calculated using GraphPad Prism 4.0 software (GraphPad Software, Inc., San Diego, CA, USA), and the results are described in Table 2 below.

[1] = tested on: human-derived breast cancer cell line MDA-MB-231; test: Anticancer effect in animal test on breast cancer cell line (MDA-MB-231) transplanted in nude mice; assay type: in vivo, BALB/C nude mouse; conditions: for Inhibition rate (tumor size, vs Control group); tumor growth inhibition: day 23 (last day)
Description: Cancer cells (human-derived breast cancer cell line MDA-MB-231) that had been frozen-stored in liquid nitrogen were thawed and then cultured. The cells were cultured in a CO2 incubator (NuAire, USA) at a temperature of 37° C. and a CO2 concentration of 5%.
Lineage and Sex: Specific pathogen-free (SPF) BALB/C strain and female nude mouse (Orient Bio Co., Ltd.)
Week-old: Age at time of obtainment—5 week-old/Age at time of cancer cell transplantation—6 week-old/Age at time of drug administration—7 week-old
On the final day of cancer cell culture, all cancer cells were collected and counted, and the cell concentration was adjusted to 3×10^7 cells/ml using serum free media. 0.3 ml (9×10^6 cells/mouse) of the cell culture medium adjusted in this way per mouse was injected subcutaneously in the axillary area between the right scapular region and chest wall.
Calculation of Tumor Size Changes
After cancer cell transplantation, until the 23rd day since the average tumor size for each group reached about 14.2 mm^3, tumor sizes were measured a total 11 times in three directions using Vernier calipers for each individual, and then expressed in Equation of length×width×height/2.
On the 23rd day after the start of drug administration, all subjects were killed using CO2 gas, and the tumors were separated, weighed on chemical balance, and photographed.
Statistical analysis was performed using GraphPad Prism software from GraphPad Software. Changes in body weight and tumor volume according to a day were analyzed using a Bonferroni multiple comparison test after two-way ANOVA, and tumor weight on the final day was analyzed using a Dunnett's multiple comparison test after one-way ANOVA.

ACHN (kidney cancer) = test: Cytotoxicity test against cancer cell lines (SRB assay), ACHN; assay type: cell-based; conditions: Homo sapiens, 48 hours
Description: as §1, §2

NCI-H23 = test: Cytotoxicity test against cancer cell lines (SRB assay), NCI-H23; assay type: cell-based; conditions: Homo sapiens, NCI-H23, 48 hours
Description: as §1, §2

[2] = tested on: MDA-MB-231 (breast cancer); test: Cytotoxicity test against cancer cell lines (SRB assay), MDA-MB-231; assay type: cell-based; conditions: Homo sapiens, MDA-MB-231, 48 hours
Description: as §1, §2

PC-3 (prostate cancer) = test: Cytotoxicity test against cancer cell lines (SRB assay), PC-3; assay type: cell-based; conditions: Homo sapiens, PC-3, 48 hours
Description: as §1, §2

HCT-15 (colon cancer) = test: Cytotoxicity test against cancer cell lines (SRB assay), HCT-15; assay type: cell-based; conditions: Homo sapiens, HCT-15, 48 hours
Description: as §1, §2

[3] = tested on: various types of cancer cell lines; test: Cytotoxicity test (SRB assay), summary over the six cancer cell lines; assay type: cell-based; conditions: Homo sapiens; range over six cancer cell lines; read-out: GI50 values ranging (over the cell lines of Table 2)
Description: as §1, §2

[4] = General symptoms and autopsy findings in MDA-MB-231 cancer cell transplant nude mice; conditions: 2 mg/kg repeatedly intraperitoneally
Description: Preparation and Administration of Experimental Substances Samples were prepared for administration in Examples 1 and 2. Each of the two compounds prepared above was dissolved in dimethylacetamide (DMAC) to make 0.1 mg/ml of a stock, and then 10% tween80 and 20% HPβCD 80% were added stepwise to a 10% DMAC stock to be prepared at a final concentration of 0.01 mg/ml, and as a comparison group for comparison of anticancer effects, doxorubicin was dissolved in physiological saline to prepare an experimental substance at a concentration of 0.2 mg/ml. The prepared experimental substance was repeatedly administered intraperitoneally total 18 times by 0.2 ml per 20 g of the mouse, 5 times a week on a dosing schedule (days 0 to 4, 7 to 11, 14 to 19, 21 to 23).

[5] = day 2, 0.1 mg/kg intraperitoneally
[6] = day 4, 0.1 mg/kg intraperitoneally
[7] = day 7, 0.1 mg/kg intraperitoneally
[8] = day 9, 0.1 mg/kg intraperitoneally
[9] = day 11, 0.1 mg/kg intraperitoneally
[10] = day 14, 0.1 mg/kg intraperitoneally
[11] = day 16, 0.1 mg/kg intraperitoneally
[12] = day 18, 0.1 mg/kg intraperitoneally
[13] = day 21, 0.1 mg/kg intraperitoneally
[14] = day 23, 0.1 mg/kg intraperitoneally
[15] = day 2, 2 mg/kg intraperitoneally
[16] = day 4, 2 mg/kg intraperitoneally
[17] = day 7, 2 mg/kg intraperitoneally
[18] = day 9, 2 mg/kg intraperitoneally
[19] = day 11, 2 mg/kg intraperitoneally
[20] = day 14, 2 mg/kg intraperitoneally
[21] = day 16, 2 mg/kg intraperitoneally
[22] = day 18, 2 mg/kg intraperitoneally
[23] = day 21, 2 mg/kg intraperitoneally
[24] = day 23, 2 mg/kg intraperitoneally

With `COc1ccc2c(=O)c3c(O)c4c(c(O)c3oc2c1OC)CCc1c(OC2OC(C)C(OC)C(OC)C2OC)c2c(c(O)c1-4)C(=O)OC(C)C2` (stereo not shown) [Example 2, 8,15,16-trihydroxy-10,11-dimethoxy-3-methyl-5-((3,4,5-trimethoxy-6-methyltetrahydro-2H-pyran-2-yl)oxy)-3,4,6,7-tetrahydropyrano[4′,3′:6,7]naphtho[1,2-b]xanthene-1,14-dione] the GI50 (NUGC-3 (stomach cancer)) was 3 nM, the “Tumor size (Δt = Vt − Vo)” value ([1]; day 0, 0.1 mg/kg intraperitoneally) was 0 mm^3 and the “Inhibition rate (tumor size, vs Control group)” value [1, 5] was 53.2%. For the same compound, the “Tumor size (Δt = Vt − Vo)” value [1, 5] was 5.8 mm^3, the “Inhibition rate (tumor size, vs Control group)” value [1, 6] was 59.3% and the “Tumor size (Δt = Vt − Vo)” value [1, 6] was 10.1 mm^3. The “Inhibition rate (tumor size, vs Control group)” value [1, 7] was 51.6%, the “Tumor size (Δt = Vt − Vo)” value [1, 7] was 23.6 mm^3 and the “Inhibition rate (tumor size, vs Control group)” value [1, 8] was 49.3%. The “Tumor size (Δt = Vt − Vo)” value [1, 8] was 30.1 mm^3, the “Inhibition rate (tumor size, vs Control group)” value [1, 9] was 43.3% and the “Tumor size (Δt = Vt − Vo)” value [1, 9] was 53.1 mm^3. For the same compound, the “Inhibition rate (tumor size, vs Control group)” value [1, 10] was 50.7%, the “Tumor size (Δt = Vt − Vo)” value [1, 10] was 96.9 mm^3 and the “Inhibition rate (tumor size, vs Control group)” value [1, 11] was 57.9%. The “Tumor size (Δt = Vt − Vo)” value [1, 11] was 155.5 mm^3, the “Inhibition rate (tumor size, vs Control group)” value [1, 12] was 46.1% and the “Tumor size (Δt = Vt − Vo)” value [1, 12] was 297 mm^3. The “Inhibition rate (tumor size, vs Control group)” value [1, 13] was 54.6%, the “Tumor size (Δt = Vt − Vo)” value [1, 13] was 447.7 mm^3 and the “Inhibition rate (tumor size, vs Control group); tumor growth inhibition” value ([1]; 0.1 mg/kg intraperitoneally) was 56.7%. For the same compound, the “Inhibition rate (tumor weight, vs Control group); reduction in tumor weight” value [1, 14] was 52.8%, the “Tumor size (Δt = Vt − Vo)” value [1, 14] was 593.3 mm^3 and the “Tumor weight on final day” value [1, 14] was 1033.4 mg. It also gave a GI50 (ACHN (kidney cancer)) of 5 nM, a GI50 (NCI-H23) of 4 nM and a GI50 [2] of 4 nM. For the same compound, the GI50 (PC-3 (prostate cancer)) was 3 nM, the GI50 (HCT-15 (colon cancer)) was 5 nM and the GI50 [3] was 3 to 5 nM.

In the case of `COc1cccc2c1C(=O)c1c(O)c3c(c(O)c1C2=O)C[C@@](O)(C(=O)CO)C[C@@H]3O[C@H]1C[C@H](N)[C@H](O)[C@H](C)O1` [doxorubicin], the GI50 (NUGC-3 (stomach cancer)) is reported as 145 nM, the “Tumor size (Δt = Vt − Vo)” value ([1]; day 0, 2 mg/kg intraperitoneally) is reported as 0 mm^3 and the “Inhibition rate (tumor size, vs Control group)” value [1, 15] is reported as 65.3%. The “Tumor size (Δt = Vt − Vo)” value [1, 15] was 4.3 mm^3, the “Inhibition rate (tumor size, vs Control group)” value [1, 16] was 64% and the “Tumor size (Δt = Vt − Vo)” value [1, 16] was 8.9 mm^3. The “Inhibition rate (tumor size, vs Control group)” value [1, 17] was 67.8%, the “Tumor size (Δt = Vt − Vo)” value [1, 17] was 15.7 mm^3 and the “Inhibition rate (tumor size, vs Control group)” value [1, 18] was 67.9%. For the same compound, the “Tumor size (Δt = Vt − Vo)” value [1, 18] was 19.1 mm^3, the “Inhibition rate (tumor size, vs Control group)” value [1, 19] was 70.4% and the “Tumor size (Δt = Vt − Vo)” value [1, 19] was 27.7 mm^3. For the same compound, the “Inhibition rate (tumor size, vs Control group)” value [1, 20] was 80.5%, the “Tumor size (Δt = Vt − Vo)” value [1, 20] was 38.3 mm^3 and the “Inhibition rate (tumor size, vs Control group)” value [1, 21] was 83%. The “Tumor size (Δt = Vt − Vo)” value [1, 21] was 62.7 mm^3, the “Inhibition rate (tumor size, vs Control group)” value [1, 22] was 83.3% and the “Tumor size (Δt = Vt − Vo)” value [1, 22] was 92 mm^3. For the same compound, the “Inhibition rate (tumor size, vs Control group)” value [1, 23] was 77.5%, the “Tumor size (Δt = Vt − Vo)” value [1, 23] was 222.1 mm^3 and the “Inhibition rate (tumor size, vs Control group); tumor growth inhibition” value ([1]; 2 mg/kg intraperitoneally, listed as Comparison group, 2 mg/kg) was 79%. The “Inhibition rate (tumor size, vs Control group); tumor growth inhibition” value ([1]; 2 mg/kg intraperitoneally, listed as comparison group, 2 mg/kg) was 79.0%, the “Inhibition rate (tumor weight, vs Control group); reduction in tumor weight” value [1, 24] was 75.9% and the “Tumor size (Δt = Vt − Vo)” value [1, 24] was 287.9 mm^3. For the same compound, the “Tumor weight on final day” value [1, 24] was 527.9 mg, the GI50 (ACHN (kidney cancer)) was 151 nM and the GI50 (NCI-H23) was 139 nM. For the same compound, the GI50 [2] was 146 nM, the GI50 (PC-3 (prostate cancer)) was 137 nM and the “General symptoms during administration and organs upon necropsy on the final day” value [4] was “no abnormal findings”. It also gave a GI50 (HCT-15 (colon cancer)) of 153 nM.
